Reference: article PMC8041284, “Tunable Methacrylamides for Covalent Ligand Directed Release Chemistry” (Journal of the American Chemical Society, 2021)
Like-named read-outs stand apart in the source and are kept apart here.

Biological target: BTK (Homo sapiens, UniProt Q06187)
Test: biochemical
[1] = read-out: BTK inhibition (%), 0.75 uM BTK, […] probe 3l, 15 min preincubation

Chain of BTK (Q06187 402-655 limits assumed): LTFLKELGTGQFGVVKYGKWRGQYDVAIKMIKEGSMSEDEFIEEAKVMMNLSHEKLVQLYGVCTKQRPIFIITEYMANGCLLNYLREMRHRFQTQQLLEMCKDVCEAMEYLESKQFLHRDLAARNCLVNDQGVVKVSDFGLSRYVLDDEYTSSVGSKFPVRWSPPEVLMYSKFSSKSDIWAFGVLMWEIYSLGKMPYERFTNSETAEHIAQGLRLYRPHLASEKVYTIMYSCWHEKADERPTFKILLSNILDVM

| Compound | inhibition at 10 µM (read-out: BTK inhibition (%)) | inhibition at 10 µM [1] |
| --- | --- | --- |
| C/C=C(\C)C(=O)N[C@@H](c1ccccc1)[C@@H](O)C(=O)O[C@H]1C[C@@]2(O)[C@@H](OC(=O)c3ccccc3)[C@@H]3[C@]4(OC(C)=O)CO[C@@H]4C[C@H](O)[C@@]3(C)C(=O)[C@H](OC(C)=O)C(=C1C)C2(C)C [PCM-0214711] | -8.6% | – |
| C[C@@H]1CC[C@@]2(OC1)O[C@H]1C[C@H]3[C@@H]4CC=C5C[C@@H](O[C@@H]6O[C@H](CO)[C@@H](O[C@@H]7O[C@@H](CO)[C@H](O)[C@H]7O)[C@H](O)[C@H]6O[C@@H]6O[C@@H](C)[C@H](O)[C@@H](O)[C@H]6O)CC[C@]5(C)[C@H]4CC[C@]3(C)[C@H]1[C@@H]2C [PCM-0216403] | – | -10% |
| Cn1ncc(Cl)c1-c1cc(C(=O)N[C@H](CN)Cc2cccc(F)c2)sc1Cl [PCM-0215459] | – | -40% |
| C#C[C@]1(O)C=C[C@H]2[C@@H]3CCC4=CC(=O)CC[C@@H]4[C@H]3CC[C@@]21CC [PCM-0214616] | – | 3.1% |
| C=C1CCOC1=O [PCM-0215909] | – | 0.8% |
| O=c1c2cc(O)c(O)cc2oc2cc(O)c([C@@H]3O[C@H](CO)[C@@H](O)[C@H](O)[C@H]3O)c(O)c12 [PCM-0215004] | – | -14.8% |
| C=C[C@]1(C)C[C@@H](OC(=O)CSC2C[C@H]3CC[C@@H](C2)N3C)[C@]2(C)[C@H](C)CC[C@]3(CCC(=O)[C@H]32)[C@@H](C)[C@@H]1O (some centres unmarked) [PCM-0095603] | – | 3.9% |
| CC(C)c1ccc(NC(=O)Cn2cnc3c2c(=O)n(C)c(=O)n3C)cc1 [PCM-0095403] | – | -12.5% |
| c1cncc(CN2CCC(n3ncc4c(N5CCOCC5)nc(-c5ccc6[nH]ccc6c5)nc43)CC2)c1 [PCM-0095384] | – | -27.6% |
| COc1ccc(C(=O)C(=O)c2ccc(OC)cc2)cc1 [PCM-0216078] | – | 24.7% |
| O=C(COc1cccc2c(=O)[nH]ccc12)c1ccccc1 [PCM-0095624] | – | 5.4% |
| CC(C)[C@H](NC(=O)c1ccc2ccccc2n1)C(=O)N[C@@H](CC(=O)O)C(=O)COc1c(F)cccc1F [PCM-0215598] | – | 7.7% |
| CC(C)=CCC/C(C)=C/CC/C(C)=C/CCC(=O)OC/C=C(\C)CCC=C(C)C [PCM-0216575] | – | 7.7% |
| CO/N=C(\C(=O)N[C@@H]1C(=O)N2C(C(=O)OCOC(=O)C(C)(C)C)=C(C)CS[C@H]12)c1csc(N)n1 [PCM-0216124] | – | -4.7% |
| CC1=C(C(=O)OCCN(Cc2ccccc2)c2ccccc2)C(c2cccc([N+](=O)[O-])c2)C(P2(=O)OCC(C)(C)CO2)=C(C)N1 (centres unmarked) [PCM-0215151] | – | 7.8% |
| COc1ccc2c(c1O)-c1c(O)c(OC)cc3c1[C@H](C2)[N+](C)(C)CC3 [PCM-0216382] | – | -1.5% |
| Cn1c([N+](=O)[O-])cnc1COC(N)=O [PCM-0086329] | – | -12.5% |
| CC(=O)Nc1cccc2c1c(Sc1ccc(Cl)cc1)c(C)n2CC(=O)O [PCM-0215238] | – | -9.3% |
| C[C@]12CCC(=O)C[C@@H]1CC[C@@H]1[C@@H]2CC[C@]2(C)[C@@H](O)CC[C@@H]12 [PCM-0214865] | -21% | – |
| CC(C)n1ncnc1-c1cn2c(n1)-c1ccc(O[C@@H](C)C(N)=O)cc1OCC2 [PCM-0215832] | – | -8.3% |
| CN(C)CCc1ccc(O)cc1 [PCM-0094832] | – | -21.8% |
| FC(F)(F)Oc1ccc(-c2ccc3nnc(C(F)(F)F)n3c2)cc1 [PCM-0216074] | – | 7.7% |
| COc1cc(-c2oc3cc(O)cc(O)c3c(=O)c2O[C@@H]2O[C@H](CO[C@@H]3O[C@@H](C)[C@H](O)[C@@H](O)[C@H]3O)[C@@H](O)[C@H](O)[C@H]2O)ccc1O [PCM-0216322] | – | 8.5% |
| C[C@H]1CCC/C=C/[C@@H]2C[C@H](O)C[C@H]2[C@H](O)/C=C/C(=O)O1 [PCM-0095573] | – | 0.8% |
| O=c1c2cc(O[C@@H]3O[C@H](CO)[C@@H](O)[C@H](O)[C@H]3O)c(O)cc2oc2cc(O)c([C@@H]3O[C@H](CO)[C@@H](O)[C@H](O)[C@H]3O)c(O)c12 [PCM-0214972] | – | -3.1% |
| Cc1cc(O)c(-c2ccc([C@@H](C)CN)cc2)c2c1[nH]c(=O)c1sccc12 [PCM-0215772] | – | 70.3% |
